We go through 46 molecules from BindingDB's records for patent US20250313563 (The Broad Institute, 2025).

Test [1] concerns the target Glycogen synthase kinase-3 alpha (Homo sapiens, UniProt P49840). Briefly: TR-FRET Assay. The procedure, abridged: (§1)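 TR-FRET readout: streptavidin-d2 (40 nM in added detection mix) plus Tb-anti-pSer641 Ab (2 nM in mix). Steps were 30 min compound preincubation, kinase reaction, then EDTA stop.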
(In general: TR-FRET usually uses a lanthanide donor and a delayed reading to cut background.)

The target of test [2] is Glycogen synthase kinase-3 beta (Homo sapiens, UniProt P49841). Nature of the test: TR-FRET Assay. An outline of the steps: as §1
Glycogen synthase kinase-3 beta, sequence (P49841 whole entry): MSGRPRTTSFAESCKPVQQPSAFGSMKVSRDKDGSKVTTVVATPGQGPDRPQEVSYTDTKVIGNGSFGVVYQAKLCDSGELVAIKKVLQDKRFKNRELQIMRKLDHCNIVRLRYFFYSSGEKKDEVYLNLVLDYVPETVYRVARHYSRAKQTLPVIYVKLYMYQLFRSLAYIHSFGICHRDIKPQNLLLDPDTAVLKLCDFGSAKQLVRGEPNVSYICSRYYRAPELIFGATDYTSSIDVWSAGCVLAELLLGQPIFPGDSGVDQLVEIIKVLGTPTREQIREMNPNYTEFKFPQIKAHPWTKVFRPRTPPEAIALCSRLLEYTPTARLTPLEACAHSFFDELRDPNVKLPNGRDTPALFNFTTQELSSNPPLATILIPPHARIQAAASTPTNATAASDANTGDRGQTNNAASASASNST

Each structure is given as a SMILES string. Several values for one entry are separate records, joined by “and”; a condition that tells them apart may be missing. Equal values may be shown once. A value given as a limit tells only on which side of the number the result lay.

Glycogen synthase kinase-3 alpha, sequence (P49840 whole entry): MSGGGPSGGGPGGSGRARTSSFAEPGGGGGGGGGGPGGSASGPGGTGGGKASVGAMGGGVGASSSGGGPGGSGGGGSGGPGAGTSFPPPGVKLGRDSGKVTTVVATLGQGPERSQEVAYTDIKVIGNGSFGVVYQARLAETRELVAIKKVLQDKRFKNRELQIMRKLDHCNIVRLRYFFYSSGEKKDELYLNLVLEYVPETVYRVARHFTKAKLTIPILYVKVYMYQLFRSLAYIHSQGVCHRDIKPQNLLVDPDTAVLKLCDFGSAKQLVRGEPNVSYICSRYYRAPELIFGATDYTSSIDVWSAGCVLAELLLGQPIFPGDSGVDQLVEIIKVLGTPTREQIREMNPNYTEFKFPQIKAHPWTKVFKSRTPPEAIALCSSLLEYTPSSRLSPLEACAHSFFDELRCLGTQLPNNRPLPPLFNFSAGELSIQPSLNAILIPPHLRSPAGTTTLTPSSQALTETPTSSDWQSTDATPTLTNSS

By IC50 is commonly meant the concentration at which inhibition is half-maximal. Low readings indicate inhibition by little substance, high ones a need for much substance. As to `CC[C@]1(c2cccc(N(C)c3ccnc(C)c3)c2)C2=CN=NC2NC2=C1C(=O)CC(C)(C)C2` (some centres not stated) [US20250313563, Compound 932645], the figures for the IC50 in test [1] and in test [2] were 0.1 to 1 µM and 1 to 5 µM, respectively.

For `CC[C@]1(c2cccc(C(F)(F)F)c2)C2=CN=NC2NC2=C1C(=O)N[C@H](c1ccccc1)C2` (some centres not stated) [US20250313563, Compound 945361], the IC50 in test [1] is under 0.1 µM; in test [2], 0.1 to 1 µM.

Turning to `CCC1(c2cccc(S(=O)(=O)C3COC3)c2)C2=CN=NC2NC2=C1C(=O)CC(C)(C)C2` (configuration not stated) [US20250313563, Compound 944017], the IC50 in test [1] and in test [2] was under 0.1 µM throughout.

Consider `CCC1(c2cccc(N(C)c3cnn(C)c3)c2)C2=CN=NC2NC2=C1C(=O)CC(C)(C)C2` (configuration not stated) [US20250313563, Compound 885382], for which the half-inhibitory concentration (IC50) was 0.1 to 1 µM in test [1] and 1 to 5 µM in test [2].

`CC[C@@]1(c2cccc(-c3cnn(C)c3C)c2)C2=CN=NC2NC2=C1C(=O)NC(C)(C)C2` (some centres not stated) [US20250313563, Compound 945608]: the results for the IC50 in test [1] and in test [2] were under 0.1 µM and 0.1 to 1 µM, respectively.

As for `CC[C@@]1(c2cccc(-c3c(C)cncc3C)c2)C2=CN=NC2NC2=C1C(=O)CC(C)(C)C2` (some centres not stated) [US20250313563, Compound 947659], the 50% inhibitory concentration (IC50) is under 0.1 µM in test [1] and 0.1 to 1 µM in test [2].

Regarding `Cn1ccc(S(=O)(=O)N2CCC3(CC2)C2=C(N=NC2)NC2=C3C(=O)CC(C)(C)[C@@H]2F)n1` [US20250313563, Compound 951708], the results for the IC50 in test [1] and in test [2] were under 0.1 µM and 0.1 to 1 µM, respectively.

Regarding `CCC1(c2cccc(-c3c(F)cncc3OC)c2)C2=CN=NC2NC2=C1C(=O)CC(C)(C)C2` (configuration not stated) [US20250313563, Compound 945704], the 50% inhibitory concentration (IC50) in test [1] was under 0.1 µM; in test [2] it was < 0.1 µM and 0.1 to 1 µM.

With `CCN1CC2(C1)C1=C(N=NC1)NC1=C2C(=O)CC(C)(C)C1` [US20250313563, Compound 929448], the IC50 in test [1] and in test [2] was over 5 µM each time.

As to `CCC1(c2cccc(C(C)C)c2)C2=C(CC(C)(C)NC2=O)NC2N=NC(C(F)(F)F)=C21` (configuration not stated) [US20250313563, Compound 949747], the IC50 in test [1] and in test [2] was under 0.1 µM each time.

In the case of `CC[C@@]1(c2cccc(-c3cc(C)nnc3C)c2)C2=CN=NC2NC2=C1C(=O)NC(C)(C)C2` (some centres not stated) [US20250313563, Compound 949331], the IC50 in test [1] is < 0.1 µM and 0.1 to 1 µM; in test [2] it was 0.1 to 1 µM and 1 to 5 µM.

For the molecule `CC1(C)CC(=O)C2=C(NC3=C(CN=N3)C23CCN(S(=O)(=O)c2ccccc2C(F)F)CC3)[C@@H]1F` [US20250313563, Compound 951846], the IC50 in test [1] was under 0.1 µM; in test [2], 0.1 to 1 µM.

On to `CC[C@@]1(c2cccc(-c3c(C)ccc4c(C)cccc34)c2)C2=C(CC(C)(C)NC2=O)NC2N=NC(F)=C21` (some centres not stated) [US20250313563, Compound 949392], for which the IC50 in test [1] was 1 to 5 µM; in test [2] it was over 5 µM.

In the case of `CCC1(c2cccc(-c3cn(C)nc3C)c2)C2=CN=NC2NC2=C1C(=O)NC(C)(C)C2` (configuration not stated) [US20250313563, Compound 944030], the IC50 in test [1] and in test [2] was under 0.1 µM in each case.

For `CCC1(c2cccc(-c3c(C)nn(C)c3C)c2)C2=C(CC(C)(C)CC2=O)NC2N=NC(C)=C21` (configuration not stated) [US20250313563, Compound 883995], the IC50 in test [1] and in test [2] was under 0.1 µM in each case.

On to `COc1ccc(C)c(S(=O)(=O)N2CCC3(CC2)C2=C(N=NC2)NC2=C3C(=O)CC(C)(C)C2)c1` [US20250313563, Compound 947245], for which the results for the IC50 in test [1] and in test [2] were under 0.1 µM and 0.1 to 1 µM, respectively.

Take `CC[C@@]1(c2cccc(N(C)c3ncccn3)c2)C2=C(CC(C)(C)NC2=O)NC2N=NC(F)=C21` (some centres not stated) [US20250313563, Compound 949648]: the IC50 was under 0.1 µM in test [1]; < 0.1 µM and 1 to 5 µM in test [2].

Take `CC[C@@]1(c2cccc(N3CCC3)c2)C2=CN=NC2NC2=C1C(=O)CC(C)(C)C2` (some centres not stated) [US20250313563, Compound 889632]: the IC50 in test [1] and in test [2] was over 5 µM in each case.

Regarding `CC[C@]1(c2cccc(C(F)(F)F)c2)C2=CN=NC2NC2=C1C(=O)N(C(C)(C)C)CC2` (some centres not stated) [US20250313563, Compound 945633], the IC50 in test [1] and in test [2] was over 5 µM in each case.

With `C[C@H]1COCC[C@]12C1=CN=NC1NC1=C2C(=O)CC(C)(C)C1` (some centres not stated) [US20250313563, Compound 924309], the IC50 in test [1] is 1 to 5 µM; in test [2] it was over 5 µM.

As for `CC[C@]1(c2cccc(C(F)(F)F)c2)C2=CN=NC2NC2=C1C(=O)N(c1cscn1)CC2` (some centres not stated) [US20250313563, Compound 952629], the IC50 in test [1] was under 0.1 µM; in test [2], 0.1 to 1 µM.

For the molecule `CC1(C)CC(=O)C2=C(NC3=C(CN=N3)[C@]23CC[C@H](C(F)(F)F)CC3)C1F` (some centres not stated) [US20250313563, Compound 917136], the 50% inhibitory concentration (IC50) is under 0.1 µM in test [1] and 0.1 to 1 µM in test [2].

Regarding `CC[C@@]1(c2cccc(-c3cnn(C)c3)c2)C2=C(CC(C)(C)NC2=O)NC2N=NC(C(F)(F)F)=C21` (some centres not stated) [US20250313563, Compound 947877], the IC50 in test [1] is under 0.1 µM; in test [2], < 0.1 µM and 0.1 to 1 µM.

On to `CC[C@]1(c2cccc(-c3cn(C)nc3C)c2)C2=C(CC(C)(C)NC2=O)NC2N=NC(Cl)=C21` (some centres not stated) [US20250313563, Compound 949329], for which the IC50 in test [1] is 1 to 5 µM; in test [2] it was over 5 µM.

For `Cc1ccc(C)c(C(=O)N2CC3(C2)CC2(CO3)C3=C(N=NC3)NC3=C2C(=O)CC(C)(C)C3)c1` (configuration not stated) [US20250313563, Compound 947285], the IC50 in test [1] was under 0.1 µM; in test [2] it was 0.1 to 1 µM.

Regarding `CC[C@]1(c2cccc(N(C)c3ccc(F)nc3)c2)C2=CN=NC2NC2=C1C(=O)CC(C)(C)C2` (some centres not stated) [US20250313563, Compound 932647], the IC50 in test [1] was under 0.1 µM; in test [2], 0.1 to 1 µM.

`CCC1(c2cccc(S(=O)(=O)C3CC3)c2)C2=CN=NC2NC2=C1C(=O)CC(C)(C)C2` (configuration not stated) [US20250313563, Compound 909204]: the IC50 was under 0.1 µM in test [1]; < 0.1 µM and 0.1 to 1 µM in test [2].

As for `CC[C@]1(c2cccc(C(F)(F)F)c2)C2=CN=NC2NC2=C1C(=O)N[C@@H](C)C2` (some centres not stated) [US20250313563, Compound 912097], the IC50 in test [1] is 0.1 to 1 µM; in test [2] it was over 5 µM.

For `CC(C)S(=O)(=O)N1CCC2(CC1)C1=C(N=NC1)NC1=C2C(=O)CC(C)(C)[C@H]1F` [US20250313563, Compound 951701], the IC50 in test [1] was < 0.1 µM and 0.1 to 1 µM; in test [2] it was < 0.1 µM and 1 to 5 µM.

In the case of `CC[C@@]1(c2cccc(C(F)(F)F)c2)C2=C(CCN(c3ccc(OC)cc3)C2=O)NC2N=NC(C)=C21` (some centres not stated) [US20250313563, Compound 948226], the IC50 is under 0.1 µM in test [1] and 0.1 to 1 µM in test [2].

Consider `CC[C@]1(c2cccc(C3=CN(C)NC3C)c2)C2=C(N=NC2)NC2=C1C(=O)C(C)(C)C2` (some centres not stated) [US20250313563, Compound 951710], for which the IC50 in test [1] and in test [2] was over 5 µM each time.

As to `CN1C[C@]2(C3=C(CC(C)(C)CC3=O)NC3N=NC(CC(C)(C)C)=C32)c2ccccc21` (some centres not stated) [US20250313563, Compound 125978], the IC50 is 1 to 5 µM in test [1] and 0.1 to 1 µM in test [2].

`CCC1(c2ccccc2)C2=C(N=NC2)NC2=C1C(=O)CSC2` (configuration not stated) [US20250313563, Compound 801406]: the IC50 in test [1] was 1 to 5 µM; in test [2], over 5 µM.

Take `CC[C@H]1CCN1c1cccc([C@@]2(CC)C3=CN=NC3NC3=C2C(=O)CC(C)(C)C3)c1` (some centres not stated) [US20250313563, Compound 911969]: the IC50 is under 0.1 µM in test [1] and 0.1 to 1 µM in test [2].

Turning to `CC1(C)CC(=O)C2=C(C1)NC1=C(CN=N1)C21CCN(CC(F)F)CC1` [US20250313563, Compound 883962], the concentration for half-maximal inhibition (IC50) in test [1] and in test [2] was 0.1 to 1 µM throughout.

On to `CC[C@]1(c2cccc(-c3cncn3C(C)C)c2)C2=CN=NC2NC2=C1C(=O)CC(C)(C)C2` (some centres not stated) [US20250313563, Compound 945729], for which the IC50 in test [1] lay in the range of 0.1 to 1 µM; in test [2], 1 to 5 µM.

In the case of `CCC1(c2cccc(N(C)c3cccc(C(F)(F)F)n3)c2)C2=CN=NC2NC2=C1C(=O)CC(C)(C)C2` (configuration not stated) [US20250313563, Compound 913122], the IC50 in test [1] and in test [2] was 0.1 to 1 µM each time.

For `CC[C@@]1(c2ccccc2)C2=CN=NC2NC2=C1C(=O)[C@@H](C)C[C@@H]2C` (some centres not stated) [US20250313563, Compound 865198], the IC50 is 0.1 to 1 µM in test [1] and 1 to 5 µM in test [2].

With `CC[C@]1(c2cccc(S(C)(=O)=O)c2)C2=CN=NC2NC2=C1C(=O)NC(C)(C)C2` (some centres not stated) [US20250313563, Compound 945621], the figures for the half-maximal inhibitory concentration (IC50) in test [1] and in test [2] were 1 to 5 µM and over 5 µM, respectively.

As to `CCC1(c2cccc(-c3ccnnc3)c2)C2=CN=NC2NC2=C1C(=O)CC(C)(C)C2` (configuration not stated) [US20250313563, Compound 927342], the IC50 in test [1] and in test [2] was under 0.1 µM each time.

As for `CCc1cc(-c2cccc(C3(CC)C4=CN=NC4NC4=C3C(=O)CC(C)(C)C4)c2)ccn1` (configuration not stated) [US20250313563, Compound 947493], the results for the IC50 in test [1] and in test [2] were under 0.1 µM and 0.1 to 1 µM, respectively.

`CC1(C(F)(F)F)CC(=O)C2=C(C1)NC1=C(CN=N1)C21CCOCC1` (configuration not stated) [US20250313563, Compound 901458]: the IC50 in test [1] and in test [2] was 0.1 to 1 µM throughout.

For the molecule `CC(C)(C)CC1N=NC2=C1[C@@](C)(c1cccc(S(=O)(=O)CC3CC3)c1)C1=C(CC(C)(C)NC1=O)N2` (some centres not stated) [US20250313563, Compound 108006], the IC50 in test [1] and in test [2] was over 5 µM throughout.

For `CCC1(c2cccc(-c3ccnc(OC)c3)c2)C2=C(CC(C)(C)CC2=O)NC2N=NC(C)=C21` (configuration not stated) [US20250313563, Compound 883985], the IC50 in test [1] is under 0.1 µM; in test [2], 0.1 to 1 µM.

As to `CC[C@]1(c2cccc(OC)c2)C2=CN=NC2NC2=C1C(=O)CC(C)(C)C2` (some centres not stated) [US20250313563, Compound 811561], the IC50 in test [1] was 1 to 5 µM; in test [2] it was over 5 µM.

Turning to `CCC1(c2cccc(C3CC4CCC(C3)O4)c2)C2=CN=NC2NC2=C1C(=O)CC(C)(C)C2` (configuration not stated) [US20250313563, Compound 889622], the concentration for half-maximal inhibition (IC50) in test [1] and in test [2] was 0.1 to 1 µM each time.
